Test results: patent publication US9468669B2, “Methods to treat dysregulated blood glucose disorders” (REGENTS OF THE UNIVERSITY OF MINNESOTA, priority 2013, dated 2016)

What was measured:
human islets [1] = test: Glucose stimulated insulin release (GSIR); type: cell-based; conditions: 100 uM, glucose series
Protocol: Living islets were isolated from the pancreas of a consenting organ donor via enzymatic digestion and isopycnic density gradient purification as previously described (Balamurugan, A N., et al., (2014) The Islets of Langerhans, 2nd Edition, 1-25). This isolation was performed as a standard procedure by an experienced team at the Schulze Diabetes Institute of the University of Minnesota under GMP conditions. A portion of the total number of isolated islets were granted for these experiments after quality control testing and quantification. Islets were maintained in culture in supplemented Prodo media with a 5.5 mM glucose concentration in a T-flask at 37° C., 5% CO2. […]
After washing to remove culture media, approximate aliquots of 30 islet equivalents (IEQ, islet numbers normalized to an average size of 150 microns) were added to cell strainers immersed in 1.0 mL of 0-glucose solution. […] All well contents, both time 0 and post-stimulation samples, were stored at −80° C. until they could be assessed for insulin content via sandwich ELISA from a standard commercial mouse insulin ELISA kit. Insulin content, post-stimulation concentration minus the time 0 concentration, was normalized to the actual IEQ of each well, which was determined by Pico-green DNA assessment (Papas, K. K., et al., (2007), Am J Transplant 7, 707-13) of cell strainer contents recovered at the end of the final incubation. […]

blood glucose [2] = test: Chronic D-serine drinking, fasted blood glucose, body weight and consumption; type: in vivo, mice of the C57 strain
Protocol: Mice were fasted for 4-6 hours. The tails were wiped with ethanol and allowed to dry. For a first time test, the tip of the tail was removed with a scissors. For subsequent tests, a needle was used to puncture the tail vein. The first drop of blood was wiped away and then the second drop was placed on a glucometer test strip. A second test was administered immediately and most scores were an average of the two readings. If there was more than a 100 unit discrepancy between the two readings, a third reading was taken and the reported value was an average of the three. Eight adult male mice of the C57 strain were tested in a chronic administration model. Mice were housed 2 per cage, with each cage outfitted with 2 special drinking tubes (50 mL conical+stopper with sipper tube) to minimize the impact of any problems with a single tube. Two cages of mice drank tap water and two cages of mice drank a D-serine solution (12.6 mg/ml in tap water), with solutions replaced every other day. Every other day, the food and drinking bottles were weighed to determine cage-wide consumptive behaviors and the mice were individually weighed. At specified intervals, mice were also tested for core body temperature by rectal probe and for 4-hours fasted blood glucose. All mice started with a week of water drinking. […] After one week, two cages (4 mice) were switched to D-serine solution. […] After this measure, all mice were again switched back to water. […] Both acute weight loss and increased drinking are prominent symptoms of the onset of diabetes.

human islets [3] = test: Human islet viability (acridine orange / propidium iodide staining); type: cell-based; conditions: for islet viability: 100 uM
Protocol: (§1) Living islets were isolated from the pancreas of a consenting organ donor via enzymatic digestion and isopycnic density gradient purification as previously described (Balamurugan, A N., et al., (2014) The Islets of Langerhans, 2nd Edition, 1-25). This isolation was performed as a standard procedure by an experienced team at the Schulze Diabetes Institute of the University of Minnesota under GMP conditions. A portion of the total number of isolated islets were granted for these experiments after quality control testing and quantification. Islets were maintained in culture in supplemented Prodo media with a 5.5 mM glucose concentration in a T-flask at 37° C., 5% CO2. Half-volume media changes were performed every 3′^d day.
After conditional incubations (described below), islets were placed in standard media for 2-8 hrs before viability assessment. The viability of islets was assessed by double staining an aliquot of ˜25 islets with acridine orange (stains living cells) and propidium iodide (stains necrotic or apoptotic cells) (Bank, H. L., (1988) In Vitro Cell Dev Biol 24, 266-73). Each islet in the sample was evaluated under a fluorescent microscope and assigned a value for the % of live cells present and those numbers averaged for that sample. 3× samples per condition were assayed each day for 3 consecutive days and on one day in a follow-up experiment 1 week later. Prior to staining, aliquots were incubated for 60 minutes (FIG. 12, n=2 days) or 90 minutes (FIG. 13, n=2 days) in each solution type used in the GSIR incubations in addition to 100 uM concentrations of D-serine, NMDA or D-serine+NMDA alone (i.e. in 0 glucose). […] On the 3rd day and in a subsequent follow-up experiment, islets were incubated for 90 minutes in the same solutions. In this case, viability was decreased only under those conditions with both the maximum glucose concentration (28 mM) and the addition of NMDA and/or D-serine with the most dramatic loss of viable islet cells (down to 81.1±1.1%) observed in the 28 mM glucose+100 uM NMDA+100 uM D-serine condition (FIG. 13).

[4] = Core body temperature by rectal probe during chronic D-serine drinking; type: in vivo, mice; conditions: throughout the chronic D-serine drinking experiment
Protocol: Eight adult male mice of the C57 strain were tested in a chronic administration model. Mice were housed 2 per cage, with each cage outfitted with 2 special drinking tubes (50 mL conical+stopper with sipper tube) to minimize the impact of any problems with a single tube. Two cages of mice drank tap water and two cages of mice drank a D-serine solution (12.6 mg/ml in tap water), with solutions replaced every other day. Every other day, the food and drinking bottles were weighed to determine cage-wide consumptive behaviors and the mice were individually weighed. At specified intervals, mice were also tested for core body temperature by rectal probe and for 4-hours fasted blood glucose. All mice started with a week of water drinking. […] After one week, two cages (4 mice) were switched to D-serine solution. […] After this measure, all mice were again switched back to water. […] Both acute weight loss and increased drinking are prominent symptoms of the onset of diabetes.
The hypothalamus is known to regulate metabolism through its influence on circadian rhythm, hunger, thirst, body temperature and glucose utilization among others. […] Core body temperature, determined by rectal thermometer, was stable throughout the chronic D-serine drinking experiment (FIG. 8A) and between wildtype and DAO mutant mice (FIG. 8B).

[5] = Plasma D-serine during chronic, sustained drinking (capillary electrophoresis); type: in vivo, mice; conditions: 12.6 mg/mL drinking solution
Excerpt: The data from FIG. 4 were generated from an unpublished study of the impacts of D-serine on ethanol drinking. […] Blood was collected from the facial vein and assayed via capillary electrophoresis as described above after mice (n=2-4 per condition as shown in the x-axis) had been presented with a choice of water vs. D-serine (or ethanol) drinking solution for 2 weeks and then 2 weeks of exclusively drinking treated solution according to their indicated treatment category.

human islets [6] = test: Sustained high concentration D-serine on human islet survival (1 week culture); type: cell-based; conditions: 100 uM NMDA and 500 uM D-serine
Protocol: as §1
After conditional incubations (described below), islets were placed in standard media for 2-8 hrs before viability assessment. The viability of islets was assessed by double staining an aliquot of ˜25 islets with acridine orange (stains living cells) and propidium iodide (stains necrotic or apoptotic cells) (Bank, H. L., (1988) In Vitro Cell Dev Biol 24, 266-73). Each islet in the sample was evaluated under a fluorescent microscope and assigned a value for the % of live cells present and those numbers averaged for that sample. 3× samples per condition were assayed each day for 3 consecutive days and on one day in a follow-up experiment 1 week later. […]

[7] = Plasma D-serine after acute i.p. administration (capillary electrophoresis); type: in vivo, mice; conditions: 2.7 g/kg i.p., 35 and 55 minutes after injection; ethanol 3 g/kg i.p. 15 min after D-serine
Protocol: The data from FIG. 3 serves as an example of a concentration reference value subject to the time frame and administration technique of the acute hypoglycemia experiments described in FIG. 1. A 20 uL blood sample was collected from the facial vein of mice prior to any treatment (time 0) and 20 and 40 minute intervals after an i.p. injection of ethanol (3 g/kg). A pre-treatment injection of saline (n=9) or D-serine (2.7 g/kg, i.p., n=9) was administered 15 minutes before ethanol such that the reported values also correspond to time 35 and 55 minutes after the pre-injection. These blood samples were assayed for D-serine using capillary electrophoresis, as described in the publication (Lockridge, 2012). Basal levels of plasma D-serine were ˜20 uM with post-injection values rising into the […].

blood glucose [8] = test: Acute D-serine injection, fasted blood glucose by glucometer; type: in vivo, mice of the ddY strain; conditions: 2.7 g/kg i.p., 6 h fasted
Protocol: Mice were fasted for 4-6 hours. The tails were wiped with ethanol and allowed to dry. For a first time test, the tip of the tail was removed with a scissors. For subsequent tests, a needle was used to puncture the tail vein. The first drop of blood was wiped away and then the second drop was placed on a glucometer test strip. A second test was administered immediately and most scores were an average of the two readings. If there was more than a 100 unit discrepancy between the two readings, a third reading was taken and the reported value was an average of the three.
Four adult male mice of the ddY strain were fasted for 6 hours before testing. A blood glucose reading from each mouse was determined at the start (time 0). The mice were weighed and the average weight was used with an injection volume of 0.3 mL to calculate the concentration of D-serine to dissolve into saline. The dose, 2.7 g/kg, was picked based on previously published behavior studies in which the intraperitoneal dose was the most reliable in inducing a mouse behavior response during pre-pulse startle inhibition (Kanahara, N., et al., (2008), Psychopharmacology, 198, 363-374) and acute ethanol sedation (Lockridge, A., et al., (2012), Alcohol, 46:389-400). After time 0 testing, each mouse received either D-serine or saline (alternating by cage) at 5 minute intervals. Blood glucose readings were taken at 15, 30, 60 and 120 minutes after each mouse's initial injection. The data presented is the average blood glucose (mg/dL), determined by glucometer as previously described (FIG. 1). Each data point is the average of the two mice with the same treatment condition, while the standard error bars indicate the degree of individual variability between subjects. The saline injected control mice (black) maintained a steady glucose level (70-80% of baseline) throughout the testing period.

[9] = 12.6 mg/ml in drinking water, first week of treatment

Row | SMILES | effect on insulin secretion, supplement alone (human islets [1]) | solution drinking (blood glucose [2]; 12.6 mg/ml in drinking water) | blood sugar (blood glucose [2]; 12.6 mg/ml in drinking water, 16 days of drinking, 4-hours fasted) | blood sugar (blood glucose [2]; 12.6 mg/ml in drinking water, after 7 days of drinking, 4-hours fasted) | body weight (blood glucose [2]; [9]) | eating (blood glucose [2]; [9]) | blood glucose (blood glucose [2]; 12.6 mg/ml in drinking water, two days after the switch, 4-hours fasted) | blood glucose after switch back to water (blood glucose [2]; after a week of water drinking following 16 days of D-serine) | islet viability (human islets [3]; human, 60 min) | core body temperature [4] | plasma level relative to human patients undergoing D-serine oral therapy ([5]; versus clinical trials (Emilov 2013)) | concentration at 4 weeks ([5]; mouse, plasma, oral, 2 weeks choice then 2 weeks exclusive drinking, read-out: basal D-serine plasma level) | average viability, % viable cells per islet (human islets [6]) | islets recovered, average pool IEQ (human islets [6]; Pico-green DNA assay) | plasma D-serine, post-injection [7] | blood sugar (blood glucose [8]; 15 and 30 minutes after injection) | blood sugar, % of baseline (blood glucose [8]; 60 minutes after injection) | blood sugar, % of baseline (blood glucose [8]; 120 minutes after injection) | islet viability (human islets [3]; 60 minutes incubation, all GSIR solution types and 0 glucose) | islet viability (viable islet cells) (human islets [3]; 90 minutes incubation, 28 mM glucose, 100 uM supplement)
1 | N[C@H](CO)C(=O)O [D-serine] | no effect | increased | 170 ± 9 mg/dL | 149 ± 12 mg/dL | weight loss | reduced eating | still at baseline levels | recovered back to baseline glucose levels | ~100% | stable | 2-3 times higher | 400 to 600 µM | 84±2.4% | 1137±172 IEQ | ~12 mM | stable | 52 % of baseline | 36 % of baseline | – | –
2 | CN[C@H](CC(=O)O)C(=O)O [NMDA, N-methyl-D-aspartate] | no effect on 2 out of 3 days tested | – | – | – | – | – | – | – | – | – | – | – | – | – | – | – | – | – | ~100% | decreased
